Patent publication US20250197372A1 (priority 2020, published 2025)

Legend:
Type in all cases: biochemical
[1] = target: T1, recombinant alpha-glucosidase II (murine full-length glucosidase II, alpha and beta subunits, Glu 2) (Mus musculus, UniProt Q8BHN3); assay: Alpha-glucosidase II assay (4-methylumbelliferyl-alpha-D-pyranoside substrate, fluorescence); details: Glucosidase 2; read-out: Glu2 IC50
T1 construct: made in house; host or cells: HEK-293T cells transduced with BacMam viruses (75% alpha, 25% beta); protein harvested from culture supernatant

[2] = target: recombinant human GAA (acid alpha-glucosidase) (Homo sapiens, UniProt P10253); assay: Acid alpha-glucosidase (GAA) assay (4-methylumbelliferyl-alpha-D-pyranoside substrate, fluorescence)
Outline: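 Recombinant human enzyme preincubated 60 min at 37 °C with compound dilutions, then 4-methylumbelliferyl-alpha-D-pyranoside substrate added for 20 min at 37 °C. Stopped with glycine/NaOH pH 10; methylumbelliferone fluorescence (ex 365, em 440 nm) versus untreated enzyme; IC50 by 4-PL fit.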

[3] = target: rat maltase (partially purified alpha-glucosidase from intestinal rat powder); assay: Intestinal alpha-glucosidase assay, maltose substrate (Glucose GO Kit)
Outline: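 Partially purified alpha-glucosidase from rat intestinal powder was preincubated 60 min at 37 °C with serial compound dilutions, then given maltose or sucrose and incubated 30 min at 37 °C.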

T1 sequence (O08795 15-521): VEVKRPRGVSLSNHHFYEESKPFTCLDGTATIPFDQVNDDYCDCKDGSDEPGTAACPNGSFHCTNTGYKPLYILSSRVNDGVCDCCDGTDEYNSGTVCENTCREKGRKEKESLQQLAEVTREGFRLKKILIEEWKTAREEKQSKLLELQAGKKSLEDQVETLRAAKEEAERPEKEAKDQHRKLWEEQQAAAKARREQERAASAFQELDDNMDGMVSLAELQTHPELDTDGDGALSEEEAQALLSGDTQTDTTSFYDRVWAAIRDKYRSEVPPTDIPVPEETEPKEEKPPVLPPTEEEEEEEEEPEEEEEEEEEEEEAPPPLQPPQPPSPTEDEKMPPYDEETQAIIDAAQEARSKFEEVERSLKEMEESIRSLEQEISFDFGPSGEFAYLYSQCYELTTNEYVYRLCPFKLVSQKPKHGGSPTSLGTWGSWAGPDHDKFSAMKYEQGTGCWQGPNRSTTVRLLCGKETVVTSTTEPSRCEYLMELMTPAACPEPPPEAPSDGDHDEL
T1 sequence (Q8BHN3 33-944): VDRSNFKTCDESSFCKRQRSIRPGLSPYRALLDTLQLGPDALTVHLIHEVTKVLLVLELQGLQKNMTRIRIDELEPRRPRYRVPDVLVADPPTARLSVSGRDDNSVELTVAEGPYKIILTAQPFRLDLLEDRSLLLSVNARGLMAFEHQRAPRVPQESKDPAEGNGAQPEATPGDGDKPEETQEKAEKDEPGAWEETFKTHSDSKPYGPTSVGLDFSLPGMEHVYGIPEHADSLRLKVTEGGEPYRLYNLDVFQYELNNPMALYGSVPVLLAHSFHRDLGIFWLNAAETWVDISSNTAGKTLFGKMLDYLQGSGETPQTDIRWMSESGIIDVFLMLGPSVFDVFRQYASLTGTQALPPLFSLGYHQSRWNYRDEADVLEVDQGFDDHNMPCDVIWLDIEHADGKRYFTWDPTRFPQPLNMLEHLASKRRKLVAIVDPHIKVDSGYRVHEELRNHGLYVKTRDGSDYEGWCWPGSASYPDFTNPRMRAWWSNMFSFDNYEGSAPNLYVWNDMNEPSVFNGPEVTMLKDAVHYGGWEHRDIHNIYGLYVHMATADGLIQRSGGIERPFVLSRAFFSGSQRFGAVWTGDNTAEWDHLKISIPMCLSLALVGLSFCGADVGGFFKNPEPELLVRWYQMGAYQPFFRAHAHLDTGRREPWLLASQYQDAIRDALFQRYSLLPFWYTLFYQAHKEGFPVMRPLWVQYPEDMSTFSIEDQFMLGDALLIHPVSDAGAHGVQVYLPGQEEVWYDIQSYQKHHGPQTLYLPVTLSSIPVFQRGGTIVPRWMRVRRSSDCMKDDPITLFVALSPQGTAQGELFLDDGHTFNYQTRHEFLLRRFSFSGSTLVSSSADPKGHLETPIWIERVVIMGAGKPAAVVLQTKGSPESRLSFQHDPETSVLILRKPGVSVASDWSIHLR

| Structure (SMILES) | IC50 [1] [nM] | IC50 [2] [nM] | IC50 [3] [nM] |
| --- | --- | --- | --- |
| COc1cc(NCCc2ccc(CCN3C[C@H](O)[C@@H](O)[C@H](O)[C@H]3CO)cc2)cc(-c2cccnn2)c1 [Compound 1157, (2R,3R,4R,5S)-2-(hydroxymethyl)-1-{2-[4-(2-{[3-methoxy-5-(pyridazin-3-yl)phenyl]amino}ethyl)phenyl]ethyl}piperidine-3,4,5-triol] | 4 | 292 | 107 |
| OC[C@@H]1[C@@H](O)[C@H](O)[C@@H](O)CN1CCc1ccc(CCNc2cc(Cl)cc(-c3ccco3)c2)cc1 [Compound 1159, (2R,3R,4R,5S)-1-{2-[4-(2-{[3-chloro-5-(furan-2-yl)phenyl]amino}ethyl)phenyl]ethyl}-2-(hydroxymethyl)piperidine-3,4,5-triol] | 91 | < 1 | 25 |
| OC[C@@H]1[C@@H](O)[C@H](O)[C@@H](O)CN1CCc1ccc(CCNc2cc(Cl)cc(C3=COCCO3)c2)cc1 [Compound 1161, (2R,3R,4R,5S)-1-{2-[4-(2-{[3-chloro-5-(5,6-dihydro-1,4-dioxin-2-yl)phenyl]amino}ethyl)phenyl]ethyl}-2-(hydroxymethyl)piperidine-3,4,5-triol] | 2 | 84 | 273 |
| OC[C@@H]1[C@@H](O)[C@H](O)[C@@H](O)CN1CCc1ccc(CCNc2cc(Cl)cc(-c3ncccn3)c2)cc1 [Compound 1162, (2R,3R,4R,5S)-1-{2-[4-(2-{[3-chloro-5-(pyrimidin-2-yl)phenyl]amino}ethyl)phenyl]ethyl}-2-(hydroxymethyl)piperidine-3,4,5-triol] | < 1 | 62 | 138 |
| OC[C@@H]1[C@@H](O)[C@H](O)[C@@H](O)CN1CCc1ccc(CCNc2cc(Cl)cc(-c3cccnn3)c2)cc1 [Compound 1163, (2R,3R,4R,5S)-1-{2-[4-(2-{[3-chloro-5-(pyridazin-3-yl)phenyl]amino}ethyl)phenyl]ethyl}-2-(hydroxymethyl)piperidine-3,4,5-triol] | < 1 | 93 | 309 |
| [N-]=[N+]=Nc1ccc(NCc2ccc(-c3ccc(CN4C[C@H](O)[C@@H](O)[C@H](O)[C@H]4CO)cc3)cc2)c([N+](=O)[O-])c1 [Compound 1166, (2R,3R,4R,5S)-1-[(4′-{[(4-azido-2-nitrophenyl)amino]methyl}-[1,1′-biphenyl]-4-yl)methyl]-2-(hydroxymethyl)piperidine-3,4,5-triol] | 2010 | 1380 | < 1 |
| [N-]=[N+]=Nc1ccc(NCc2cccc(CN3C[C@H](O)[C@@H](O)[C@H](O)[C@H]3CO)c2)c([N+](=O)[O-])c1 [Compound 1169, (2R,3R,4R,5S)-1-[(3-{[(4-azido-2-nitrophenyl)amino]methyl}phenyl)methyl]-2-(hydroxymethyl)piperidine-3,4,5-triol] | 16100 | 420 | < 1 |
| [N-]=[N+]=Nc1ccc(NCc2ccc(CN3C[C@H](O)[C@@H](O)[C@H](O)[C@H]3CO)cc2)c([N+](=O)[O-])c1 [Compound 1170, (2R,3R,4R,5S)-1-[(4-{[(4-azido-2-nitrophenyl)amino]methyl}phenyl)methyl]-2-(hydroxymethyl)piperidine-3,4,5-triol] | < 1 | 81 | < 1 |
| [N-]=[N+]=Nc1ccc(NCCc2cc(CCN3C[C@H](O)[C@@H](O)[C@H](O)[C@H]3CO)ccc2C2CCCCC2)c([N+](=O)[O-])c1 [Compound 1171, (2R,3R,4R,5S)-1-[2-(3-{2-[(4-azido-2-nitrophenyl)amino]ethyl}-4-cyclohexylphenyl)ethyl]-2-(hydroxymethyl)piperidine-3,4,5-triol] | 1010 | 2080 | 5660 |
| [N-]=[N+]=Nc1ccc(NCCc2ccc(CCN3C[C@H](O)[C@@H](O)[C@H](O)[C@H]3CO)c3c2OCCO3)c([N+](=O)[O-])c1 [Compound 1173, (2R,3R,4R,5S)-1-[2-(8-{2-[(4-azido-2-nitrophenyl)amino]ethyl}-2,3-dihydro-1,4-benzodioxin-5-yl)ethyl]-2-(hydroxymethyl)piperidine-3,4,5-triol] | 666 | 1800 | 48 |
| [N-]=[N+]=Nc1ccc(NCc2cc(CCN3C[C@H](O)[C@@H](O)[C@H](O)[C@H]3CO)cs2)c([N+](=O)[O-])c1 [Compound 1174, (2R,3R,4R,5S)-1-[2-(5-{[(4-azido-2-nitrophenyl)amino]methyl}thiophen-3-yl)ethyl]-2-(hydroxymethyl)piperidine-3,4,5-triol] | < 1 | 230 | < 1 |
| [N-]=[N+]=Nc1ccc(NCCn2cc(CCN3C[C@H](O)[C@@H](O)[C@H](O)[C@H]3CO)c3ccccc32)c([N+](=O)[O-])c1 [Compound 1177, (2R,3R,4R,5S)-1-[2-(1-{2-[(4-azido-2-nitrophenyl)amino]ethyl}-1H-indol-3-yl)ethyl]-2-(hydroxymethyl)piperidine-3,4,5-triol] | 65 | 5540 | 32 |
| [N-]=[N+]=Nc1ccc(NCCc2cc(CCN3C[C@H](O)[C@@H](O)[C@H](O)[C@H]3CO)cs2)c([N+](=O)[O-])c1 [Compound 1179, (2R,3R,4R,5S)-1-[2-(5-{2-[(4-azido-2-nitrophenyl)amino]ethyl}thiophen-3-yl)ethyl]-2-(hydroxymethyl)piperidine-3,4,5-triol] | < 1 | 692 | 1 |
| COc1cc(CN2CCCO2)cc(NCCCCCCN2C[C@H](O)[C@@H](O)[C@H](O)[C@H]2CO)c1 [Compound 1182, (2R,3R,4R,5S)-2-(hydroxymethyl)-1-[6-({3-methoxy-5-[(1,2-oxazolidin-2-yl)methyl]phenyl}amino)hexyl]piperidine-3,4,5-triol] | 2 | 33 | 26 |
| OC[C@@H]1[C@@H](O)[C@H](O)[C@@H](O)CN1CCCCCCNc1cc(Cl)cc(CN2CCCO2)c1 [Compound 1183, (2R,3R,4R,5S)-1-[6-({3-chloro-5-[(1,2-oxazolidin-2-yl)methyl]phenyl}amino)hexyl]-2-(hydroxymethyl)piperidine-3,4,5-triol] | 4 | 90 | 15 |
| O=Cc1cc(-c2ncccn2)ccc1NCCCCCCN1C[C@H](O)[C@@H](O)[C@H](O)[C@H]1CO [Compound 1184, 5-(pyrimidin-2-yl)-2-({6-[(2R,3R,4R,5S)-3,4,5-trihydroxy-2-(hydroxymethyl)piperidin-1-yl]hexyl}amino)benzaldehyde] | 1 | 48 | 6 |
| [N-]=[N+]=Nc1ccc(NCCc2ccc(CCN3C[C@H](O)[C@@H](O)[C@H](O)[C@H]3CO)s2)c([N+](=O)[O-])c1 [Compound 1186, (2R,3R,4R,5S)-1-[2-(5-{2-[(4-azido-2-nitrophenyl)amino]ethyl}hiophen-2-yl)ethyl]-2-(hydroxymethyl)piperidine-3,4,5-triol] | 1 | 263 | 5 |
| [N-]=[N+]=Nc1ccc(NCCc2cncc(CCN3C[C@H](O)[C@@H](O)[C@H](O)[C@H]3CO)n2)c([N+](=O)[O-])c1 [Compound 1187, (2R,3R,4R,5S)-1-[2-(6-{2-[(4-azido-2-nitrophenyl)amino]ethyl}pyrazin-2-yl)ethyl]-2-(hydroxymethyl)piperidine-3,4,5-triol] | 3 | 615 | 1200 |
| [N-]=[N+]=Nc1ccc(NCCc2nccc(CCN3C[C@H](O)[C@@H](O)[C@H](O)[C@H]3CO)n2)c([N+](=O)[O-])c1 [Compound 1188, (2R,3R,4R,5S)-1-[2-(2-{2-[(4-azido-2-nitrophenyl)amino]ethyl}pyrimidin-4-yl)ethyl]-2-(hydroxymethyl)piperidine-3,4,5-triol] | 1140 | 838 | 164 |
| [N-]=[N+]=Nc1ccc(NCCc2cnn(CCN3C[C@H](O)[C@@H](O)[C@H](O)[C@H]3CO)c2)c([N+](=O)[O-])c1 [Compound 1191, (2R,3R,4R,5S)-1-[2-(4-{2-[(4-azido-2-nitrophenyl)amino]ethyl}-1H-pyrazol-1-yl)ethyl]-2-(hydroxymethyl)piperidine-3,4,5-triol] | 20300 | 2740 | 171 |
| OC[C@@H]1[C@@H](O)[C@H](O)[C@@H](O)CN1CCCCCCNc1cc(Cl)cc(-c2cnccn2)c1 [Compound 1196, (2R,3R,4R,5S)-1-(6-{[3-chloro-5-(pyrazin-2-yl)phenyl]amino}hexyl)-2-(hydroxymethyl)piperidine-3,4,5-triol] | 2 | 10 | 2 |
| COc1cc(NCCCCCCN2C[C@H](O)[C@@H](O)[C@H](O)[C@H]2CO)cc(-c2cnccn2)c1 [Compound 1197, (2R,3R,4R,5S)-2-(hydroxymethyl)-1-(6-{[3-methoxy-5-(pyrazin-2-yl)phenyl]amino}hexyl)piperidine-3,4,5-triol] | 1 | 37 | 9 |
| OC[C@@H]1[C@@H](O)[C@H](O)[C@@H](O)CN1CCCCCCNc1ccc(-c2cnccn2)cc1Cl [Compound 1198, (2R,3R,4R,5S)-1-(6-{[2-chloro-4-(pyrazin-2-yl)phenyl]amino}hexyl)-2-(hydroxymethyl)piperidine-3,4,5-triol] | 17 | 47 | < 1 |
| COc1cc(-c2cnccn2)ccc1NCCCCCCN1C[C@H](O)[C@@H](O)[C@H](O)[C@H]1CO [Compound 1199, (2R,3R,4R,5S)-2-(hydroxymethyl)-1-(6-{[2-methoxy-4-(pyrazin-2-yl)phenyl]amino}hexyl)piperidine-3,4,5-triol] | 12 | 43 | 8 |
